Reference: patent US4100346A, “Certain 7(o-amino-methyl- or methylaminomethylphenyl- or cyclohexadienyl- or thienylacetamide)-3[1-carboxymethyl-(or ethyl- or propyl-)-tetrazol-5-ylthiomethyl]-3-cephem-4-carboxylic acids” (Bristol-Myers Company, priority 1976, dated 1978)
≈ marks a conversion by molar mass, not a printed value. Read-outs that look alike come from different tables or passages of the source.

What was measured:
[1] = test system: Klebsiella pneumoniae; assay: Effect of inoculum size on susceptibility of Enterobacteriaceae
[2] = test system: Staphylococcus Aureus; assay: Effect of inoculum size on susceptibility of Staphylococcus aureus; assay type: cell-based; conditions: for MICB /MICA: MIC at 10^6 over MIC at 10^2 organisms
[3] = test system: Enterobacter cloacae; assay: Effect of inoculum size on susceptibility of Enterobacteriaceae
[4] = test system: Serratia marcescens; assay: Growth inhibitory activity, antibiotic dilution technique; conditions: read-out: Minimum inhibitory concentration
[5] = test system: Klebsiella pneumoniae; assay: Minimum growth inhibitory and bactericidal concentrations for Enterobacteriaceae; assay type: cell-based; conditions: for MBC: read-out: MBC, minimum bactericidal concentration; for MIC: read-out: MIC, Minimum growth inhibitory concentration
Source text: (§1) Miscellaneous. Methods for determining bactericidal activity and susceptibility to cell-free β-lactamase were those previously used; Leitner et al., BL-S640, A Cephalosporin With a Broad Spectrum of Antibacterial Activity: Properties in vitro, Antimicrob. Agents Chemother. 7:298-305 (1975).
(§2) *MIC, Minimum growth inhibitory concentration; MBC, minimum bactericidal
(§3) concentration; expressed as micrograms per milliliter. The inoculum was […]

[6] = test system: Enterobacter cloacae; assay: as above; assay type: cell-based; conditions: for MBC: read-out: MBC, minimum bactericidal concentration; for MIC: read-out: MIC, Minimum growth inhibitory concentration
Source text: as §1, §2, §3

[7] = test system: Escherichia coli; assay: as above; assay type: cell-based; conditions: for MBC: read-out: MBC, minimum bactericidal concentration; for MIC: read-out: MIC, Minimum growth inhibitory concentration
Source text: as §1, §2, §3

[8] = test system: Edwardsiella tarda; assay: Growth inhibitory activity, antibiotic dilution technique; conditions: read-out: Minimum inhibitory concentration
[9] = test system: Arizona hinshawii; assay: as above; conditions: Salmonella enterica, read-out: Minimum inhibitory concentration
[10] = test system: Escherichia coli; assay: Effect of inoculum size on susceptibility of Enterobacteriaceae
[11] = target: staphylococcal β-lactamase, Staphylococcus aureus A9606 (Staphylococcus aureus, UniProt P00807); assay: Hydrolysis by β-lactamase in cell-free extracts; assay type: biochemical; conditions: cell-free extract
Method: as §1
Susceptibility to β-lactamase. Susceptibility to enzymic hydrolysis was assessed by determining relative rates of hydrolysis by cell-free preparations of various β-lactamases (Table 6). BL-S786 was slightly to markedly less susceptible than the other cephalosporins to hydrolysis by β-lactamases of Type Ia, Ib, IIIa and IVa. All cephalosporins were poor substrates for Type IIa and staphylococcal β-lactamases. The four cephalosporins were hydrolyzed at similar rates by the Type IVb enzyme.

[12] = test system: Citrobacter sp.; assay: Growth inhibitory activity, antibiotic dilution technique
[13] = test system: Bacteroides Fragilis; assay: Growth inhibitory activity, antibiotic dilution technique (obligate anaerobes); assay type: cell-based; conditions: 3 strains, geometric mean when applicable, read-out: Minimum inhibitory concentration
Method: Antibiotic spectrum. […] Procedures were as follows:
c. Obligate anaerobes. The assay was performed on solid medium, consisting of Brain Heart Infusion Broth (BBL) supplemented with 5% defibrinated sheep blood and 1% Ionagar (Colab). […] The plates were incubated at 37° C. for 48 hours under the oxygen-free conditions attained with a Gas-Pak (BBL) Brewer jar system.

[14] = test system: Erwinia sp.; assay: Growth inhibitory activity, antibiotic dilution technique; conditions: read-out: Minimum inhibitory concentration
[15] = test system: Enterobacter cloacae; assay: Intramuscular treatment of systemically infected mice; assay type: in vivo; conditions: Enterobacter cloacae, im, 3.5 h, read-out: PD50 /treatment
Source text: Treatment of Systemically Infected Mice. The procedures were identical with those published previously [Leitner et al., BL-S640, a Cephalosporin With a Broad Spectrum of Antibacterial Activity: Bioavailability and Therapeutic Properties in Rodents, Antimicrob. Agents Chemother.
(a) the hog gastric mucin used in infections with Staphylococcus aureus No. 2 was purchased from American Laboratories, Inc., Omaha, Neb.

[16] = Klebsiella pneumoniae strain 1, inoculum 10^4 cells
[17] = Klebsiella pneumoniae strain 2, inoculum 10^4 cells
[18] = Klebsiella pneumoniae strain 3, inoculum 10^4 cells
[19] = Klebsiella pneumoniae strain 4, inoculum 10^4 cells
[20] = Klebsiella pneumoniae strain 5, inoculum 10^4 cells
[21] = Klebsiella pneumoniae strain 6, inoculum 10^4 cells
[22] = Enterobacter cloacae strain 3, inoculum 10^4 cells
[23] = Enterobacter cloacae strain 4, inoculum 10^4 cells
[24] = Enterobacter cloacae strain 8, inoculum 10^4 cells
[25] = Escherichia coli strain 1, inoculum 10^4 cells
[26] = Escherichia coli strain 2, inoculum 10^4 cells
[27] = Escherichia coli strain 3, inoculum 10^4 cells
[28] = Escherichia coli strain 4, inoculum 10^4 cells
[29] = Escherichia coli strain 5, inoculum 10^4 cells
[30] = Escherichia coli strain 6, inoculum 10^4 cells

Chain of staphylococcal β-lactamase, Staphylococcus aureus A9606 (P00807 25-281): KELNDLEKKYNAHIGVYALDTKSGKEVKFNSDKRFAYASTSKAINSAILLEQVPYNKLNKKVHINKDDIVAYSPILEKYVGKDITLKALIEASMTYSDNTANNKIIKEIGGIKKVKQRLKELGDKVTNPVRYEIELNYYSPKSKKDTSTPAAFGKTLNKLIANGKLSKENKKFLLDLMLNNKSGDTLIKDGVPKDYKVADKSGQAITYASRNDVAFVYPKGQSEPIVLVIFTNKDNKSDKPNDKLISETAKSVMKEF

CC(=O)OCC1=C(C(=O)O)N2C(=O)[C@@H](NC(=O)Cc3cccs3)[C@H]2SC1 [Cephalothin]
MIC ([1]; read-out: Minimum Inhibitory Concentration, Klebsiella pneumoniae strain 1, A, Inoculum of 10^2 organisms): 2 µg/mL (≈ 5.04 µM)
MIC ([1]; read-out: Minimum Inhibitory Concentration, Klebsiella pneumoniae strain 1, B, Inoculum of 10^6 organisms): 8 µg/mL (≈ 20.2 µM)
MIC ([1]; read-out: Minimum Inhibitory Concentration, Klebsiella pneumoniae strain 2, A, Inoculum of 10^2 organisms): 2 µg/mL (≈ 5.04 µM)
MIC ([1]; read-out: Minimum Inhibitory Concentration, Klebsiella pneumoniae strain 2, B, Inoculum of 10^6 organisms): 32 µg/mL (≈ 80.7 µM)
MIC ([1]; read-out: Minimum Inhibitory Concentration, Klebsiella pneumoniae strain 3, A, Inoculum of 10^2 organisms): 2 µg/mL (≈ 5.04 µM)
MIC ([1]; read-out: Minimum Inhibitory Concentration, Klebsiella pneumoniae strain 3, B, Inoculum of 10^6 organisms): 16 µg/mL (≈ 40.4 µM)
MIC ([1]; read-out: Minimum Inhibitory Concentration, Klebsiella pneumoniae strain 4, A, Inoculum of 10^2 organisms): 2 µg/mL (≈ 5.04 µM)
MIC ([1]; read-out: Minimum Inhibitory Concentration, Klebsiella pneumoniae strain 4, B, Inoculum of 10^6 organisms): 8 µg/mL (≈ 20.2 µM)
MIC ([1]; read-out: Minimum Inhibitory Concentration, Klebsiella pneumoniae strain 5, A, Inoculum of 10^2 organisms): 2 µg/mL (≈ 5.04 µM)
MIC ([1]; read-out: Minimum Inhibitory Concentration, Klebsiella pneumoniae strain 5, B, Inoculum of 10^6 organisms): 32 µg/mL (≈ 80.7 µM)
MIC ([1]; read-out: Minimum Inhibitory Concentration, Klebsiella pneumoniae strain 6, A, Inoculum of 10^2 organisms): 1 µg/mL (≈ 2.52 µM)
MIC ([1]; read-out: Minimum Inhibitory Concentration, Klebsiella pneumoniae strain 6, B, Inoculum of 10^6 organisms): 16 µg/mL (≈ 40.4 µM)
effect of cell concentration on growth inhibitory activity [2]: slightly
MICB /MICA ([2]; Lacking penicillinase, 3 strains): 1.0
MICB /MICA ([2]; Penicillinase producer, 26 strains): 2.2
MIC ([3]; read-out: Minimum Inhibitory Concentration, Enterobacter cloacae strain 1, A, Inoculum of 10^2 organisms): 8 µg/mL (≈ 20.2 µM)
MIC ([3]; read-out: Minimum Inhibitory Concentration, Enterobacter cloacae strain 1, B, Inoculum of 10^6 organisms): > 250 µg/mL
MIC ([3]; read-out: Minimum Inhibitory Concentration, Enterobacter cloacae strain 2, A, Inoculum of 10^2 organisms): 16 µg/mL (≈ 40.4 µM)
MIC ([3]; read-out: Minimum Inhibitory Concentration, Enterobacter cloacae strain 2, B, Inoculum of 10^6 organisms): > 250 µg/mL
MIC ([3]; read-out: Minimum Inhibitory Concentration, Enterobacter cloacae strain 3, A, Inoculum of 10^2 organisms): 16 µg/mL (≈ 40.4 µM)
MIC ([3]; read-out: Minimum Inhibitory Concentration, Enterobacter cloacae strain 3, B, Inoculum of 10^6 organisms): 250 µg/mL (≈ 631 µM)
MIC ([3]; read-out: Minimum Inhibitory Concentration, Enterobacter cloacae strain 4, A, Inoculum of 10^2 organisms): 32 µg/mL (≈ 80.7 µM)
MIC ([3]; read-out: Minimum Inhibitory Concentration, Enterobacter cloacae strain 4, B, Inoculum of 10^6 organisms): > 250 µg/mL
MIC ([3]; read-out: Minimum Inhibitory Concentration, Enterobacter cloacae strain 5, A, Inoculum of 10^2 organisms): 16 µg/mL (≈ 40.4 µM)
MIC ([3]; read-out: Minimum Inhibitory Concentration, Enterobacter cloacae strain 5, B, Inoculum of 10^6 organisms): 250 µg/mL (≈ 631 µM)
MIC [4]: > 125 µg/mL
MBC [5, 16]: 2 µg/mL (≈ 5.04 µM)
MIC [5, 16]: 2 µg/mL (≈ 5.04 µM)
MBC [5, 17]: 8 µg/mL (≈ 20.2 µM)
MIC [5, 17]: 4 µg/mL (≈ 10.1 µM)
MBC [5, 18]: 4 µg/mL (≈ 10.1 µM)
MIC [5, 18]: 2 µg/mL (≈ 5.04 µM)
MBC [5, 19]: 4 µg/mL (≈ 10.1 µM)
MIC [5, 19]: 4 µg/mL (≈ 10.1 µM)
MBC [5, 20]: 8 µg/mL (≈ 20.2 µM)
MIC [5, 20]: 8 µg/mL (≈ 20.2 µM)
MBC [5, 21]: 2 µg/mL (≈ 5.04 µM)
MIC [5, 21]: 2 µg/mL (≈ 5.04 µM)
MBC [6, 22]: 63 µg/mL (≈ 159 µM)
MIC [6, 22]: 32 µg/mL (≈ 80.7 µM)
MBC [6, 23]: > 250 µg/mL
MIC [6, 23]: 250 µg/mL (≈ 631 µM)
MBC [6, 24]: > 250 µg/mL
MIC [6, 24]: > 250 µg/mL
MBC [7, 25]: 16 µg/mL (≈ 40.4 µM)
MIC [7, 25]: 8 µg/mL (≈ 20.2 µM)
MBC [7, 26]: 32 µg/mL (≈ 80.7 µM)
MIC [7, 26]: 32 µg/mL (≈ 80.7 µM)
MBC [7, 27]: 8 µg/mL (≈ 20.2 µM)
MIC [7, 27]: 4 µg/mL (≈ 10.1 µM)
MBC [7, 28]: 16 µg/mL (≈ 40.4 µM)
MIC [7, 28]: 8 µg/mL (≈ 20.2 µM)
MBC [7, 29]: 16 µg/mL (≈ 40.4 µM)
MIC [7, 29]: 16 µg/mL (≈ 40.4 µM)
MBC [7, 30]: 16 µg/mL (≈ 40.4 µM)
MIC [7, 30]: 16 µg/mL (≈ 40.4 µM)
MIC [8]: 1 µg/mL (≈ 2.52 µM)
MIC [9]: 2.8 µg/mL (≈ 7.06 µM)
MIC ([10]; read-out: Minimum Inhibitory Concentration, Escherichia coli strain 1, A, Inoculum of 10^2 organisms): 8 µg/mL (≈ 20.2 µM)
MIC ([10]; read-out: Minimum Inhibitory Concentration, Escherichia coli strain 1, B, Inoculum of 10^6 organisms): 32 µg/mL (≈ 80.7 µM)
MIC ([10]; read-out: Minimum Inhibitory Concentration, Escherichia coli strain 2, A, Inoculum of 10^2 organisms): 16 µg/mL (≈ 40.4 µM)
MIC ([10]; read-out: Minimum Inhibitory Concentration, Escherichia coli strain 2, B, Inoculum of 10^6 organisms): 32 µg/mL (≈ 80.7 µM)
MIC ([10]; read-out: Minimum Inhibitory Concentration, Escherichia coli strain 3, A, Inoculum of 10^2 organisms): 4 µg/mL (≈ 10.1 µM)
MIC ([10]; read-out: Minimum Inhibitory Concentration, Escherichia coli strain 3, B, Inoculum of 10^6 organisms): 16 µg/mL (≈ 40.4 µM)
MIC ([10]; read-out: Minimum Inhibitory Concentration, Escherichia coli strain 4, A, Inoculum of 10^2 organisms): 4 µg/mL (≈ 10.1 µM)
MIC ([10]; read-out: Minimum Inhibitory Concentration, Escherichia coli strain 4, B, Inoculum of 10^6 organisms): 32 µg/mL (≈ 80.7 µM)
MIC ([10]; read-out: Minimum Inhibitory Concentration, Escherichia coli strain 5, A, Inoculum of 10^2 organisms): 4 µg/mL (≈ 10.1 µM)
MIC ([10]; read-out: Minimum Inhibitory Concentration, Escherichia coli strain 5, B, Inoculum of 10^6 organisms): 32 µg/mL (≈ 80.7 µM)
MIC ([10]; read-out: Minimum Inhibitory Concentration, Escherichia coli strain 6, A, Inoculum of 10^2 organisms): 8 µg/mL (≈ 20.2 µM)
MIC ([10]; read-out: Minimum Inhibitory Concentration, Escherichia coli strain 6, B, Inoculum of 10^6 organisms): 16 µg/mL (≈ 40.4 µM)
MIC ([10]; read-out: Minimum Inhibitory Concentration, Escherichia coli strain 7, A, Inoculum of 10^2 organisms): 1 µg/mL (≈ 2.52 µM)
MIC ([10]; read-out: Minimum Inhibitory Concentration, Escherichia coli strain 7, B, Inoculum of 10^6 organisms): 8 µg/mL (≈ 20.2 µM)
Relative Rate of Hydrolysis (benzylpenicillin = 100) [11]: < 0.5
MIC ([12]; read-out: Minimum inhibitory concentration, Citrobacter sp., 1 strain): > 125 µg/mL
MIC ([12]; read-out: Minimum inhibitory concentration, Citrobacter sp., 4 strains, geometric mean when applicable): 63 µg/mL (≈ 159 µM)
MIC [13]: 125 µg/mL (≈ 315 µM)
MIC [14]: 5.3 µg/mL (≈ 13.4 µM)
ED50 [15]: > 400 mg/kg
